Source: patent US20250000834A1, “COMPOSITIONS AND METHODS FOR TARGETING GPCR FOR THE PREVENTION AND TREATMENT OF PAIN” (Duke University, priority 2021, published 2025)

How the values were obtained:
[1] = test system: PTX-induced mechanical allodynia in mice; assay: Paclitaxel (PTX)-induced mechanical allodynia, von Frey paw withdrawal threshold; assay type: in vivo, mouse; details: intrathecal 100 ng
Experimental: Pain models and drug injection: Animal model of chemotherapy-induced peripheral neuropathy (CIPN) was induced by paclitaxel (Sigma-Aldrich (St. Louis, MO), T7191, diluted with sterile saline). A single injection of paclitaxel ([…]) was given by intraperitoneal injection. A single injection of paclitaxel may induce mechanical allodynia for 4-6 weeks (X. Luo et al., Macrophage Toll-like Receptor 9 Contributes to Chemotherapy-Induced Neuropathic Pain in Male Mice. J Neurosci 39, 6848-6864 (2019)). Animal model of […] neuropathy was induced by streptozotocin (STZ, Sigma-Aldrich (St. Louis, MO), S0130, diluted with sterile saline). A single injection of STZ (75 mg/kg) was given as previously described (N. C. Brigham et al., Controlled release of etoricoxib from poly(ester urea) films for post-operative pain management. J Control Release 329, 316-327 (2021)). For intrathecal (i.t.) injection of MaR1, a spinal cord puncture was made by a Hamilton micro-syringe (Hamilton, Reno, NV) with a 30-gauge needle between the L5 and L6 levels to deliver reagents (5 μl) to the cerebral spinal fluid (J. L. Hylden, G. L. Wilcox, Intrathecal morphine in mice: a new technique. Eur. J Pharmacol. 67, 313-316 (1980)).
Nociceptive behavior tests: Gpr37l1^+/+, Gpr37l1^+/−, or Gpr37l1^−/− mice were habituated to the testing environment for at least two days before the baseline testing. All the animal behaviors were tested blindly. Thermal and mechanical sensitivity was tested before and after the injection of paclitaxel (PTX, 6 mg/kg, IP) and streptozotocin (STZ, 75 mg/kg, IP). MaR1 was intrathecally injected 3 days after the STZ and PTX injection. […] The 50% paw withdrawal threshold was measured by Dixon's up-down method (W. J. Dixon, Efficient analysis of experimental observations. Annu Rev Pharmacol Toxicol 20, 441-462 (1980)). Thermal sensitivity was measured using a Hargreaves radiant heat apparatus (IITC Life Science, Woodland Hills, CA) (K. Hargreaves, et al., A new and sensitive method for measuring thermal nociception in cutaneous hyperalgesia. Pain 32, 77-88 (1988)). […]

[2] = test system: Kir4.1 potassium channels in SGCs; assay: Patch-clamp recordings of K+ currents in SGCs of whole-mount DRG; assay type: cell-based, mouse
Experimental: Patch-clamp recordings in SGCs of whole-mount DRG: Under urethane anesthesia, mice were rapidly euthanized, followed by careful isolation of lumbar DRGs placed in the oxygenated artificial cerebral spinal fluid (aCSF). DRGs were briefly digested (20 min) using an enzymatic mixture consisting of collagenase A (1 mg/mL) and 0.32 mL Trypsin (0.25% original solution). Intact DRG were then incubated in aCSF oxygenated with 95% O2 and 5% CO2 at 34° C. Following incubation, DRG were transferred to a recording chamber. Isolated DRGs were transferred to a recording chamber continuously perfused (˜3 ml/min) with aCSF. SGCs in whole mouse DRGs could be visualized using a 40× water-immersion objective on an Olympus BX51WI microscope (Olympus Corp., Shinjuku, Japan). The round or fusiform-shaped cell bodies of SGCs were small (<10 μm) but visible near the edges of DRG neurons. Patch pipettes (Chase Scientific Glass Inc., Ramsey, MN) were pulled and filled with a pipette solution containing: 126 mM potassium gluconate, 10 mM NaCl, 1 mM MgCl2, 10 mM EGTA, 2 mM Na-ATP, and 0.1 mM Mg-GTP, adjusted to pH 7.3 with KOH. The resistance of pipettes was 10-12 MΩ. A Whole-cell patch-clamp configuration was made on SGCs at room temperature using a Multiclamp 700B amplifier (Axon Instruments, Union City, CA). Under voltage clamp, at a holding potential of −80 mV, inward or outward currents are triggered by voltage steps of −160 to +40 mV, with 20 mV increment in 200 ms (H. Zhang et al., Altered functional properties of satellite glial cells in compressed spinal ganglia. Glia 57, 1588-1599 (2009)). To isolate inwardly rectifying potassium current (Kir), potassium currents from the same cells were recorded in the absence and presence of 100 μM extracellular barium, which blocks the Kir4.1 channel (C. A. Doupnik, et al, The inward rectifier potassium channel family. Curr Opin Neurobiol 5, 268-277 (1995); X. Tong et al., Astrocyte Kir4.1 ion channel deficits contribute to neuronal dysfunction in Huntington's disease model mice. Nat Neurosci 17, 694-703 (2014)). The Kir4.1 currents were obtained by digitally subtracting those currents in the absence and presence of barium.
Kir4.1 potassium channels are the predominant potassium channels in SGCs and are chiefly responsible for the potassium currents in SGCs. Dysregulation of SGC Kir4.1 contributes to the pathogenesis of pain (M. Hanani, D. C. Spray, Emerging importance of satellite glia in nervous system function and dysfunction. Nat Rev Neurosci 21, 485-498 (2020)). SGC K^+ currents were recorded by conducting patch-clamp recordings in SGCs in whole-mount DRG preparation (data not shown; see U.S. Prov. No. 63/270,198, FIG. 7A), collected from WT mice, Gpr37l1^+/+ mice, and Gpr37l1^+/− mutant mice (FIG. 11A parts A-C).

CC/C=C\C/C=C\C[C@H](O)\C=C/C=C/C=C/[C@H](O)C/C=C\CCC(=O)O [MaR1, Maresin 1]
effect on PTX-induced mechanical allodynia ([1]; Gpr37l1+/+ WT mice, 3 days after PTX): reversed PTX-induced mechanical allodynia in all the mice
effect on PTX-induced mechanical allodynia ([1]; Gpr37l1+/− mice): significantly reversed the mechanical allodynia in a majority
effect on PTX-induced mechanical allodynia ([1]; Gpr37l1−/− mice): no significant effects
effect on PTX-induced downregulation of K+ currents in SGCs ([2]; 100 ng/ml co-applied with PTX, Gpr37l1+/+ DRG): significantly rescued
effect on K+ currents in SGCs ([2]; 100 ng/ml with PTX, Gpr37l1 mutant (Gpr37l1+/−) DRG): completely abolished
